Experimental data reported in ChEMBL document CHEMBL5532671, “Leucosceptrane Sesterterpenoids as a New Type of Natural Immunosuppressive Agents in Treating Sepsis” (J Med Chem, 2024).

Experiments:
T-cell [1] = experiment: Immunosuppressive activity in C57BL/6 female mouse T-cells isolated from spleen assessed as inhibition of LPS-induced IFN-gamma secretion at 20 uM treated for 48 hrs by ELISA based assay relative to control; format: functional; settings: for inhibition at 20 µM: C57BL/6, T-cell
T-cell [2] = experiment: Inhibition of proliferation of C57BL/6 female mouse T-cells isolated from spleen at 20 uM relative to control; format: functional; settings: for inhibition at 20 µM: C57BL/6, T-cell

Row | Compound | inhibition at 20 µM (T-cell [1]) | inhibition at 20 µM (T-cell [2]) | inhibition (T-cell [1]) | inhibition (T-cell [2])
1 | CC(C)=C[C@H]1O[C@@](C)(CC[C@@H]2OC(=O)C=C2C)C2=C1[C@@H](C)[C@@H]1CC[C@H](C)[C@@H]1C2=O | 31.3% | < 10% | – | –
2 | CC(C)=C[C@H]1O[C@@](C)(CC[C@@]2(O)OC(=O)C=C2C)C2=C1[C@@H](C)[C@@H]1CC[C@H](C)[C@]1(O)C2=O | 22.4% | < 10% | – | –
3 | CC(C)=C[C@H]1O[C@@](C)(CC[C@@]2(O)OC(=O)C=C2C)[C@@H]2C(=O)[C@@H]3[C@@H](CC[C@@H]3C)[C@H](C)[C@@]21O | 47.5% | 15.3% | – | –
4 | CC(C)=C[C@H]1O[C@@](C)(C/C=C2/OC(=O)C=C2C)C2=C1[C@@H](C)[C@@H]1CC[C@H](C)[C@@]1(O)C2=O | 32.5% | < 10% | – | –
5 | CC(C)=CC(=O)[C@@]1(O)[C@@H](C)[C@@H]2CC[C@H](C)[C@H]2C(=O)[C@]1(O)[C@H](C)CC[C@]1(O)OC(=O)C=C1C | 41.3% | 11.7% | – | –
6 | CC(C)=C[C@H]1O[C@@](C)(C/C=C2\NC(=O)C=C2C)[C@@H]2C(=O)[C@H]3[C@@H](CC[C@@H]3C)[C@H](C)[C@@]21O | 16.9% | < 10% | – | –
7 | CC(C)=C[C@H]1O[C@@]2(C)C[C@H]([C@H]3NC(=O)C=C3C)O[C@]13[C@H]2C(=O)[C@H]1[C@@H](CC[C@@H]1C)[C@@H]3C | 43.1% | 13.1% | – | –
8 | CC(C)=C[C@H]1O[C@@]2(C)C[C@H](c3occc3C)O[C@]13[C@H]2C(=O)[C@H]1[C@@H](CC[C@@H]1C)[C@@H]3C | 49.7% | 13.6% | – | –
9 | CCC(=O)CC[C@H](C)[C@@]1(O)C(=O)[C@H]2[C@@H](CC[C@@H]2C)[C@H](C)[C@]1(O)C(=O)C=C(C)C | 32.6% | < 10% | – | –
10 | CC(C)=CC(=O)[C@]12O[C@@H]([C@]3(O)OC(=O)C=C3C)C[C@H](C)[C@@]1(O)C(=O)[C@H]1[C@@H](CC[C@@H]1C)[C@@H]2C | 36.9% | < 10% | – | –
11 | CC(C)=CC(=O)[C@@]1(O)[C@@H](C)[C@@H]2CC[C@H](C)[C@H]2C(=O)[C@]1(O)[C@@H](C)CC[C@@H]1OC(=O)C=C1C | 32.1% | < 10% | – | –
12 | CC(C)=C[C@H]1O[C@@](C)(CC(=O)O)C2=C1[C@@H](C)[C@@H]1CC[C@H](C)[C@H]1C2=O | 39.9% | 25% | – | –
13 | CC(C)=C[C@H]1O[C@@](C)(CCc2occc2C)[C@@H]2C(=O)[C@@]3(O)[C@@H](C)CC[C@H]3[C@H](C)[C@@]21O | 40.4% | 16.8% | – | –
14 | CC(C)=C[C@H]1O[C@@]2(C)C[C@H]([C@]3(O)OC(=O)C=C3C)O[C@]13[C@H]2C(=O)[C@@]1(O)[C@@H](C)CC[C@H]1[C@@H]3C | 43.6% | 26% | – | –
15 | CC(C)=CC(=O)[C@@]1(O)[C@@H](C)[C@@H]2CC[C@H](C)[C@H]2C(=O)[C@]1(O)[C@@H](C)CC[C@]1(O)OC(=O)C=C1C | 48.6% | < 10% | – | –
16 | CC(C)=C[C@H]1O[C@@](C)(CCO)C2=C1[C@@H](C)[C@@H]1CC[C@H](C)[C@]1(O)C2=O | 39.6% | < 10% | – | –
17 | Norleucosceptroid K | – | – | 33.6% | 12.1%
18 | CC(C)=C[C@H]1O[C@@](C)(C/C=C2\NC(=O)C=C2C)[C@@H]2C(=O)[C@@]3(O)[C@@H](C)CC[C@H]3[C@H](C)[C@@]21O | 44% | < 10% | – | –
19 | CC(C)=CC(=O)[C@@]1(O)[C@@H](C)[C@@H]2CC[C@H](C)[C@H]2C(=O)[C@@]12OC(=O)C[C@@H]2C | 39.6% | < 10% | – | –
